Test results as given in US20130045267A1, “METHODS OF USING AGENTS THAT MODULATE CLAUDIN EXPRESSION” (priority 2010, published 2013).

Key:
[1] = test system: primary human keratinocytes (PHK); assay: Trans Epithelial Electric Resistance (TEER) in PHK monolayers; format: cell-based
Description: PHK were plated at a subconfluent density of 2.5−3×10^4 cells/filter in Transwell insert and cultured in Keratinocyte-SFM media until confluent. TEER was measured using an EVOMX voltohmmeter (World Precision Instruments, Sarasota, Fla.). The resistance of cell-free filters was subtracted from each experimental value.
(§1) PHK were plated on glass coverslips at 2-3×10^5 cells/well in a 6-well plate or at 2-3×10^4 cells/filter in Transwell insert (Costar; PET membrane, 0.4 μm pore size, 6.5 mm insert) in Keratinocyte-SFM without antibiotics. The next day after plating, cells were transfected with claudin-1 specific or control (scrambled) siRNAs (Santa Cruz) using Lipofectamine™ 2000 transfection Reagent (Invitrogen). TEER and permeability experiments were conducted 48 hours after PHK were switched to differentiation media.
TEER was measured in PHK as described above. PHK were stimulated with S. aureus-derived peptidoglycan (PGN, 0.2-20 μg/ml, n=3-7) (FIG. 19A), Malp-2 (10-1000 ng/ml, n=3) (FIG. 19B), and Pam3CSK4 a TLR1/2 ligand (0.01-20 μg/ml, n=3-6) (FIG. 19C). Data are presented by analyzing the area under the TEER curve and normalized to the mean values for the control group (media alone)*p<0.05; **p<0.01.

claudin-1 = assay: Western blot of claudin-1 protein in primary human keratinocytes; format: cell-based; details: 50 ng/ml; for claudin-1 expression over control: 48 hours, differentiating PHK, n=3; for claudin-1 expression by Western blot: PHK differentiated 48 h
Description: Human keratinocytes were isolated from neonatal foreskin. Poumay et al., “Basal Detachment of the Epidermis Using Dispase: Tissue Spatial Organization and Fate of Integrin Alpha 6 Beta 4 and Hemidesmosomes,” J. Invest. Dermatol. 102:111-7 (1994), which is hereby incorporated by reference in its entirety. PHK were cultured in Keratinocyte-SFM (Invitrogen/Gibco) with 1% Pen/Strep, 0.2% Amphotericin B (Invitrogen/Gibco). To differentiate PHK, cells were grown in DMEM (Invitrogen/Gibco) with 10% heat-inactivated fetal bovine serum (Invitrogen/Gibco) and 1% Pen/Strep, 0.2% Amphotericin B (Invitrogen/Gibco). For TJ modulation experiments, the following cytokines were added alone or in combination to the differentiation media; human IL-4 (50 ng/ml; R&D system) and IL-13 (50 ng/ml; R&D system).
PHK were lysed on ice in RIPA lysis buffer (20 mM Tris, 50 mM NaCl, 2 mM EDTA, 2 mM EGTA, 1% sodium deoxycholate, 1% TX-100, and 2% SDS, pH 7.4), with 1:100 Protease Inhibitor Cocktail (Sigma), 1:100 Phosphatase Inhibitor Cocktail ([…] for 30 min at 4° C. The samples were heated at 95° C. for 10 min and then centrifuged at 14,000 rpm for 15 min. Forty μg of protein, determined by BCA (Pierce) in NuPage LDS Sample Buffer (Invitrogen) was applied to 4-12% NuPage Bis-Tris gels (Invitrogen). Electrophoresis was performed under reducing conditions with MES SDS Buffer (Invitrogen). Membranes were incubated in blotting solution (5% non-fat dry milk in PBS+0.05% Tween 20) at RT for 1 h and then incubated with primary antibodies; claudin-1 (JAY.8; Zymed), occludin (OC/3F10; Zymed) and GAPDH (FL-355; Santa Cruz). An HRP-linked secondary antibody (GE Healthcare) was used with ECL (GE Healthcare) to visualize bands by autoradiography with Kodak BioMax MR film. The pixel intensity of each band was estimated with Image J.
as §1

occludin and ZO-1 = assay: Expression of occludin and ZO-1 in PHK differentiated with Th2 cytokines; format: cell-based, human; details: PHK differentiated with cytokine
Description: Human keratinocytes were isolated from neonatal foreskin. Poumay et al., “Basal Detachment of the Epidermis Using Dispase: Tissue Spatial Organization and Fate of Integrin Alpha 6 Beta 4 and Hemidesmosomes,” J. Invest. Dermatol. 102:111-7 (1994), which is hereby incorporated by reference in its entirety. PHK were cultured in Keratinocyte-SFM (Invitrogen/Gibco) with 1% Pen/Strep, 0.2% Amphotericin B (Invitrogen/Gibco). To differentiate PHK, cells were grown in DMEM (Invitrogen/Gibco) with 10% heat-inactivated fetal bovine serum (Invitrogen/Gibco) and 1% Pen/Strep, 0.2% Amphotericin B (Invitrogen/Gibco). For TJ modulation experiments, the following cytokines were added alone or in combination to the differentiation media; human IL-4 (50 ng/ml; R&D system) and IL-13 (50 ng/ml; R&D system). […]
Previous studies have shown that claudin-1 expression in noncutaneous epithelial cells can be modulated by cytokines and growth factors. […] To test this possibility, PHK were differentiated in the presence or absence of Th2 cytokines, IL-4 and IL-13, and the expression of claudin-1, occludin and ZO-1 was evaluated. […]

human epidermis sheet = assay: TEER in human epidermal sheets (snap-well system); details: 1 mM; for TEER, dmem + SC_1 / TEER, dmem + SC_2 / TEER, mean SC: T0 = 1.00
Text: Epidermal sheets were obtained from discarded human skin using a weck blade (0.08 inch). Epidermal samples were mounted in an adapted snap-well system (Pierro et al., “Zonula Occludens Toxin Structure-Function Analysis, Identification of the Fragment Biologically Active on Tight Junctions and of the Zonulin Receptor Binding Domain,” J. Biol.

[2] = test system: human cultured keratinocytes and reconstructed human epidermis; details: literature (Kurasawa et al. 2009); cited from earlier work
CLDN1 mRNA = assay: qPCR of CLDN1 mRNA in PHK treated with PPARγ agonist; format: cell-based, human; details: 5 μM, PHK differentiated in high Calcium media (DMEM) 24 h
Description: (§2) PHK were differentiated in high Calcium media (DMEM) in the presence of CIG 5 μM in DMSO or media with equivalent amount of DMSO alone, for 24 h. Total RNA was extracted from PHK using the QlAshredder spin column (Qiagen) and RNeasy RNA isolation kits (Qiagen). The quality of total RNA samples (RNA Integrity Number, RIN) was assessed using an Agilent 2100 Bioanalyzer (Agilent Technologies, Palo Alto, Calif.).
(§3) qPCR was performed using the iScript™ cDNA Synthesis kit and iQ™ SYBER Green Supermix assay system (Bio-Rad Laboratories). All PCR amplifications were carried out in triplicate on an iQ5 Multicolor real-time PCR detection system (Bio-Rad). Primers were designed and synthesized by Integrated DNA Technologies. Relative gene expression was calculated by using the 2^−ΔΔCt method, as previously described. The normalized Ct value of each sample was calculated using GAPDH as an endogenous control gene.

occludin mRNA = assay: qPCR of occludin mRNA in PHK treated with PPARγ agonist; format: cell-based, human; details: 5 μM, PHK differentiated in high Calcium media (DMEM) 24 h
Description: as §2, §3

Pam3CSK4 [reference compound]
tight junction function (area under the TEER curve normalized to media alone) ([1]; PGN 0.2-20 μg/ml, Malp-2 10-1000 ng/ml, Pam3CSK4 0.01-20 μg/ml): increase tight junction function

IL-13: human IL-13 (R&D system), Th2 cytokine
claudin-1 expression over control (claudin-1): 1.6±0.3 fold
claudin-1 expression by Western blot (claudin-1): enhanced expression of claudin-1
TEER, dose response ([1]; 0.5-100 ng/ml, PHK): only a slight increase in TEER
expression of occludin and ZO-1 (occludin and ZO-1): no effect

CCCCCCCCCC(=O)[O-].[Na+] [SC, Sodium Decanoate]
TEER, dmem + SC_1 (human epidermis sheet; 4 h): 0.79
TEER, dmem + SC_2 (human epidermis sheet; 4 h): 0.69
TEER, mean SC (human epidermis sheet; 4 h): 0.74
TEER, dmem + SC_1 (human epidermis sheet; 24 h): 0.56
TEER, dmem + SC_2 (human epidermis sheet; 24 h): 0.51
TEER, mean SC (human epidermis sheet; 24 h): 0.54
TEER over media alone (human epidermis sheet; after 4 hours of treatment): 0.74 fold
TEER over media alone (human epidermis sheet; after 24 hours): 0.54 fold
paracellular permeability [2]: increased paracellular permeability
transepithelial electrical resistance [2]: decreased transepithelial electrical resistance

CC1(COc2ccc(CC3SC(=O)NC3=O)cc2)CCCCC1 (stereo not shown) [ciglitazone]
CLDN1 mRNA expression over DMSO alone (CLDN1 mRNA): 1.7 fold
occludin mRNA expression (occludin mRNA): 2.0 fold
occludin mRNA expression (occludin mRNA; listed as CIG): 2 fold

B1: IL-4: human IL-4 (R&D system), Th2 cytokine (protein, UniProt P05112 25-153, looked up)
Interleukin-4: HKCDITLQEIIKTLNSLTEQKTLCTELTVTDIFAASKNTTEKETFCRAATVLRQFYSHHEKDTRCLGATAQQFHRHKQLIRFLKRLDRNLWGLAGLNSCPVKEANQSTLENFLERLKTIMREKYSKCSS
claudin-1 expression over control (claudin-1): 2.1±0.4 fold
claudin-1 expression by Western blot (claudin-1): enhanced expression of claudin-1
TEER peak ([1]; 50 ng/ml, PHK, n=4): 166±24 Ohms×cm^2
expression of occludin and ZO-1 (occludin and ZO-1): no effect
